In paper PMC3752380 (Nature chemical biology, 2013):

B1: MeaB (Methylobacterium extorquens AM1), wild type (natural protein)
chain: MSATLPDMDTLRERLLAGDRAALARAITLAESRRADHRAAVRDLIDAVLPQTGRAIRVGITGVPGVGKSTTIDALGSLLTAAGHKVAVLAVDPSSTRTGGSILGDKTRMARLAIDRNAFIRPSPSSGTLGGVAAKTRETMLLCEAAGFDVILVETVGVGQSETAVADLTDFFLVLMLPGAGDELQGIKKGILELADMIAVNKADDGDGERRASAAASEYRAALHILTPPSATWTPPVVTISGLHGKGLDSLWSRIEDHRSKLTATGEIAGKRREQDVKWMWALVHERLHQRLVGSAEVRQATAEAERAVAGGEHSPAAGADAIATLIGL

Experiments:
MeaB = biological target: T1, MeaB (Methylorubrum extorquens, UniProt C5AP93); assay: isothermal titration calorimetry; type: binding
T1 sequence (C5AP93 1-329): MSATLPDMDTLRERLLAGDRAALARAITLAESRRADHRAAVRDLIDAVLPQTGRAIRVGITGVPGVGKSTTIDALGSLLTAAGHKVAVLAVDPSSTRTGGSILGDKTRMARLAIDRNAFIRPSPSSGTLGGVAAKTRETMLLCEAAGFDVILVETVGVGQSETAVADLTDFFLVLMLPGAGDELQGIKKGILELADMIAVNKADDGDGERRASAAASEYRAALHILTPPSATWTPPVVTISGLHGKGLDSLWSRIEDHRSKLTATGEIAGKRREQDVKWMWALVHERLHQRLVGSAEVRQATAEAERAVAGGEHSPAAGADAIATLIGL

crystal structure = biological target: the molecule itself; assay: crystal structure

Molecule	Kd (MeaB) [µM]	binding result (crystal structure)
Nc1nc2c(ncn2[C@@H]2O[C@H](COP(=O)(O)OP(=O)(O)O)[C@@H](O)[C@H]2O)c(=O)[nH]1 [GDP]	1.4 ± 0.1	
Nc1nc2c(ncn2[C@@H]2O[C@H](COP(=O)(O)OP(=O)(O)NP(=O)(O)O)[C@@H](O)[C@H]2O)c(=O)[nH]1 [GMPPNP]	0.9 ± 0.2	
B1		binds
